Measured values taken from patent US5698571A, “5-HT1F mediated inhibition of neurogenic meningeal extravasation: a method for the treatment of migraine” (Eli Lilly and Company, priority 1994, dated 1997).
Where a name gives a salt, the structure may show the parent alone. Read-outs that look alike come from different tables or passages of the source. One block for each compound: values may come before it.

Tests used:
migraine = conditions: in vivo; cited from earlier work
neurogenic inflammation = conditions: dose similar to that required to treat acute migraine in humans; cited from earlier work
5-HT1F = target: T1, 5-HT1F (Homo sapiens, UniProt P30939); experiment: Radioligand binding ([3H]5-HT displacement), 5-HT1F
T1 construct: expressed in transfected cells; host or cells: Ltk- cells

rabbit saphenous vein = experiment: Rabbit Saphenous Vein Contraction
5-HT1F receptor [1] = conditions: Weinshank et al., WO93/14201; cited from earlier work
[2] = tested on: neuronal protein extravasation; experiment: Protein extravasation assay (dura, stimulation of trigeminal ganglion); type: in vivo, guinea pig
[3] = Humphrey et al.; cited from earlier work
[4] = in vivo; cited from earlier work
vasoconstriction = conditions: Goodman and Gilman; cited from earlier work
5-HT1F receptor [5] = target: T2, 5-HT1F receptor (Homo sapiens, UniProt P30939); experiment: Measurement of cAMP formation: inhibition of forskolin stimulated cAMP in NIH3 T3 cells transfected with the 5-HT1F receptor; type: cell-based; conditions: for agonist character at the 5-HT1F receptor in the cAMP assay: forskolin stimulated cAMP, transfected NIH3 T3 cells
T2 sequence (P30939 1-366): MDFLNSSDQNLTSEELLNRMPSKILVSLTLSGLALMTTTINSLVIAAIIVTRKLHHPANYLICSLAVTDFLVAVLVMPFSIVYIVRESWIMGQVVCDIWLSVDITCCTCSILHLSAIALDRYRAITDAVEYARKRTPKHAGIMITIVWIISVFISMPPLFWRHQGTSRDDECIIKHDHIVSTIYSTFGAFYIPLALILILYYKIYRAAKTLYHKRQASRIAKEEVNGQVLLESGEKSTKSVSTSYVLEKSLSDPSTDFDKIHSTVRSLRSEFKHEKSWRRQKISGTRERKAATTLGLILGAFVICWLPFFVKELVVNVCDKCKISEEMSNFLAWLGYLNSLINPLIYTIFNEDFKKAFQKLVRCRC

[6] = Oryctolagus cuniculus, read-out: Corrected Vasoconstriction EC50
[7] = Oryctolagus cuniculus; read-out: Rabbit Saphenous Vein Contraction EC50
[8] = Cavia porcellus, iv, read-out: Inhibition of Protein Extravasation i.v. ID50
[9] = Oryctolagus cuniculus, read-out: Rabbit Saphenous Vein Contraction (% Max. KCl)
[10] = i.v., 10 minutes before trigeminal ganglion stimulation; dose inhibiting extravasation by 50%

SMILES: CNS(=O)(=O)Cc1ccc2[nH]cc(CCN(C)C)c2c1.O=C(O)CCC(=O)O [Compound I, 3-[2-(dimethylamino)ethyl]-N-methyl-1H-indole-5-methanesulfonamide butane-1,4-dioate (1:1)]
efficacy in the treatment of migraine (migraine): effective in the treatment of migraine
blockade of neurogenic inflammation (neurogenic inflammation): blocked
5-HT1F activity (in words) (5-HT1F): significant component of 5-HT1F activity
EC50 (rabbit saphenous vein; [6]): 10.3 nM
EC50 (rabbit saphenous vein; [7]): 660 nM
affinity for the 5-HT1F receptor (5-HT1F receptor [1]): high affinity
ED50 [2, 8]: 2.6e-05 µmol/kg
Inhibition of Protein Extravasation i.v. ID50 ([2]; iv): 2.6e-08 mmol/kg
agonist at 5-HT1-like receptors, hydrophilicity [3]: hydrophilic agonist at 5-HT-1-like receptors
crossing of the blood-brain barrier [3]: does not cross the blood-brain barrier
contraindications as products of vasoconstrictive activity [4]: coronary vasospasm, hypertension and angina

EC50 (rabbit saphenous vein; Oryctolagus cuniculus; read-out: Corrected Vasoconstriction EC50): 72.9 nM
EC50 (rabbit saphenous vein; [7]): 1000 nM
SMILES: Cn1cc(CCN2CCC(c3c[nH]c4ccc(F)cc34)CC2)cn1 [Compound II, 5-fluoro-3-<1-<2-<1-methyl-1H-pyrazol-4-yl >ethyl>-4-piperidinyl>-1H-indolehydrochloride]
Emax (rabbit saphenous vein; Oryctolagus cuniculus; read-out: Rabbit Saphenous Vein Contraction (% Max. KCl)): 13.7%
ED50 ([2]; Cavia porcellus, iv; read-out: Inhibition of Protein Extravasation i.v. ID50): 8e-07 µmol/kg
Inhibition of Protein Extravasation i.v. ID50 ([2]; guinea pig, in vivo, iv): 8e-10 mmol/kg

SMILES: Oc1ccc2[nH]cc(C3CCNCC3)c2c1 [Compound III, 5-hydroxy-3-(4-piperidinyl)-1-H-indole oxalate]
ED50 [2, 8]: 8.9e-06 µmol/kg

SMILES: CCN(CC)C1CCc2cccc(Cl)c2C1.Cl (centres unmarked) [Compound IV, 8-chloro-2-diethylamino-1,2,3,4-tetrahydronaphthalene hydrochloride]
5-HT1F activity (in words) (5-HT1F): significant component of 5-HT1F activity
EC50 (rabbit saphenous vein; [6]): 1.49 nM
Emax (rabbit saphenous vein; [9]): 67.2%
EC50 (rabbit saphenous vein; [7]): 1000 nM
ED50 [2, 8]: 0.00012 µmol/kg
Inhibition of Protein Extravasation i.v. ID50 [2, 10]: 1.2e-07 mmol/kg

SMILES: CN(C)C1CCc2[nH]c3ccc(O)cc3c2C1 (centres unmarked) [Compound V, 6-hydroxy-3-dimethylamino-1,2,3,4-tetrahydrocarbazole]
EC50 (rabbit saphenous vein; [6]): > 8030 nM
Emax (rabbit saphenous vein; [9]): 12.4%
EC50 (rabbit saphenous vein; Oryctolagus cuniculus, read-out: Rabbit Saphenous Vein Contraction EC50): > 100000 nM
ED50 [2, 8]: 8.7e-06 µmol/kg
Inhibition of Protein Extravasation i.v. ID50 [2, 10]: 8.7e-09 mmol/kg

SMILES: CN1C[C@H](C(=O)N[C@]2(C)O[C@@]3(O)[C@@H]4CCCN4C(=O)[C@H](Cc4ccccc4)N3C2=O)C[C@@H]2c3cccc4[nH]cc(c34)C[C@H]21 [Dihydroergotamine]
vasoconstrictor activity (vasoconstriction): potent vasoconstrictor
agonist character at the 5-HT1F receptor in the cAMP assay (5-HT1F receptor [5]): partial agonist
cAMP assay Emax at the 5-HT1F receptor (5-HT1F receptor [5]; percent of maximal effect of serotonin, forskolin 10 μM): 49.5%
ED50 [2, 8]: 2.43e-05 µmol/kg
inhibition of neuronal protein extravasation (in words) ([2]; i.v.): fully effective inhibitor
ratio of extravasation in the dura, stimulated side compared to unstimulated side ([2]; i.v.; saline controls approximately 2.0 in rats, 1.8 in guinea pigs): 1.0

agonist character at the 5-HT1F receptor in the cAMP assay (5-HT1F receptor [5]): maximal effect
SMILES: NCCc1c[nH]c2ccc(O)cc12 [serotonin]
